Laboratory results reported in patent US8058311B2, “Imaging 18F or 11C-labelled alkylthiophenyl guanidines” (Hammersmith Imanet Limited, priority 2005, dated 2011).

Experiment: Biodistribution: radioactivity in rat peripheral organs and body fluids after intravenous injection
Assay type: in vivo
Protocol: N-(2-Chloro-5-(2-[^18F]fluoro-ethylthio))-phenyl-N′-(3-methylthio)-phenyl-N′-methylguanidine was prepared according to Example 4 (synthesis formulation ˜3% ethanol in 0.9% w/v saline solution) with a radiochemical purity of ˜99% and, at time of injection, the specific activity ranged from 4-16 GBq/nmol^−1. Biodistribution and blood data were from 11 adult male Sprague-Dawley rats (body weight range, 269 to 329 g; mean±S.E.=300±18 g). N-(2-Chloro-5-(2-[^18F]fluoro-ethylthio))-phenyl-N′-(3-methylthio)-phenyl-N′-methylguanidine was injected directly into the tail vein of each rat whilst under isoflurane anaesthesia. Each animal was then allowed to recover from anaesthesia. At designated times after injection, rats were sacrificed by cervical dislocation under anaesthesia and brain and body tissues were rapidly sampled.
The data were acquired using two syntheses. Rats were given an average of 86 MBq (85.3 MBq for first experimental day and 87.3 MBq for the second experimental day), in a volume of 0.20 ml (synthesis formulation ˜3% alcohol), via direct intravenous injection through the tail vein. The mass of co-injected N-(2-Chloro-5-(2-[^18F]fluoro-ethylthio))-phenyl-N′-(3-methylthio)-phenyl-N′-methylguanidine ranged from 0.7-2.9 nmol.kg^−1. Details of the methodology, together with processing and counting of the samples can be found in Hume et al., Nucl. Med. Biol. (1991) 18: 339-351. Data were normalised for injected radioactivity and body weight, giving: ‘uptake units’=(cpm.g^−1 wet weight tissue)·(injected cpm.g^−1 body weight)^−1 Results
Radioactivity concentration data are additionally collated in Tables 1 (peripheral tissue) and 2 (brain). As metabolite studies were not carried out, the proportion of the total radioactivity reflecting label associated with parent N-(2-Chloro-5-(2-[^18F]fluoro-ethylthio))-phenyl-N′-(3-methylthio)-phenyl-N′-methylguanidine is not known. Note, Blood and plasma samples were collected post-mortem from the heart ventricle.

radioactivity in bone (2 min, n = 1): 1.355 uptake units | radioactivity in fat (2 min, n = 1): 0.199 uptake units | radioactivity in heart (ventricle) (2 min, n = 1): 6.412 uptake units | radioactivity in kidney (2 min, n = 1): 12.975 uptake units | radioactivity in large intestinal content (2 min, n = 1): 0.113 uptake units | radioactivity in large intestine (2 min, n = 1): 3.338 uptake units | radioactivity in liver (2 min, n = 1): 5.251 uptake units | radioactivity in lung (2 min, n = 1): 32.475 uptake units | radioactivity in skeletal muscle (2 min, n = 1): 0.288 uptake units | radioactivity in skin (2 min, n = 1): 0.338 uptake units | radioactivity in small intestinal content (2 min, n = 1): 1.390 uptake units | radioactivity in small intestine (2 min, n = 1): 4.537 uptake units | radioactivity in spleen (2 min, n = 1): 3.985 uptake units | radioactivity in stomach (2 min, n = 1): 0.843 uptake units | radioactivity in testis (2 min, n = 1): 0.456 uptake units | radioactivity in urine (2 min, n = 1): 0.109 uptake units | radioactivity in bone (5 min, n = 1): 1.440 uptake units | radioactivity in fat (5 min, n = 1): 0.814 uptake units | radioactivity in heart (ventricle) (5 min, n = 1): 2.761 uptake units | radioactivity in kidney (5 min, n = 1): 10.113 uptake units | radioactivity in large intestinal content (5 min, n = 1): 0.148 uptake units | radioactivity in large intestine (5 min, n = 1): 3.442 uptake units | radioactivity in liver (5 min, n = 1): 5.648 uptake units | radioactivity in lung (5 min, n = 1): 25.015 uptake units | radioactivity in skeletal muscle (5 min, n = 1): 0.517 uptake units | radioactivity in skin (5 min, n = 1): 0.517 uptake units | radioactivity in small intestinal content (5 min, n = 1): 1.449 uptake units | radioactivity in small intestine (5 min, n = 1): 3.845 uptake units | radioactivity in spleen (5 min, n = 1): 3.676 uptake units | radioactivity in stomach (5 min, n = 1): 1.245 uptake units | radioactivity in testis (5 min, n = 1): 0.528 uptake units | radioactivity in urine (5 min, n = 1): 16.760 uptake units | radioactivity in bone (10 min, n = 2): 0.793 uptake units | radioactivity in fat (10 min, n = 2): 0.234 uptake units | radioactivity in heart (ventricle) (10 min, n = 2): 1.119 uptake units | radioactivity in kidney (10 min, n = 2): 3.931 uptake units | radioactivity in large intestinal content (10 min, n = 2): 0.109 uptake units | radioactivity in large intestine (10 min, n = 2): 1.359 uptake units | radioactivity in liver (10 min, n = 2): 3.199 uptake units | radioactivity in lung (10 min, n = 2): 10.229 uptake units | radioactivity in skeletal muscle (10 min, n = 2): 0.391 uptake units | radioactivity in skin (10 min, n = 2): 0.248 uptake units | radioactivity in small intestinal content (10 min, n = 2): 1.162 uptake units | radioactivity in small intestine (10 min, n = 2): 1.618 uptake units | radioactivity in spleen (10 min, n = 2): 3.008 uptake units | radioactivity in stomach (10 min, n = 2): 0.532 uptake units | radioactivity in testis (10 min, n = 2): 0.363 uptake units | radioactivity in urine (10 min, n = 2): 13.589 uptake units | radioactivity in bone (30 min, n = 3): 1.014 ± 0.019 uptake units | radioactivity in fat (30 min, n = 3): 0.613 ± 0.175 uptake units | radioactivity in heart (ventricle) (30 min, n = 3): 0.740 ± 0.019 uptake units | radioactivity in kidney (30 min, n = 3): 3.287 ± 0.208 uptake units | radioactivity in large intestinal content (30 min, n = 3): 0.445 ± 0.035 uptake units | radioactivity in large intestine (30 min, n = 3): 1.619 ± 0.494 uptake units | radioactivity in liver (30 min, n = 3): 6.023 ± 0.699 uptake units | radioactivity in lung (30 min, n = 3): 3.786 ± 0.292 uptake units | radioactivity in skeletal muscle (30 min, n = 3): 0.487 ± 0.036 uptake units | radioactivity in skin (30 min, n = 3): 0.491 ± 0.019 uptake units | radioactivity in small intestinal content (30 min, n = 3): 6.002 ± 3.338 uptake units | radioactivity in small intestine (30 min, n = 3): 2.241 ± 0.617 uptake units | radioactivity in spleen (30 min, n = 3): 2.713 ± 0.086 uptake units | radioactivity in stomach (30 min, n = 3): 1.558 ± 0.443 uptake units | radioactivity in testis (30 min, n = 3): 0.619 ± 0.081 uptake units | radioactivity in urine (30 min, n = 3): 49.593 ± 30.733 uptake units | radioactivity in bone (60 min, n = 3): 0.944 ± 0.305 uptake units | radioactivity in fat (60 min, n = 3): 0.405 ± 0.358 uptake units | radioactivity in heart (ventricle) (60 min, n = 3): 0.505 ± 0.104 uptake units | radioactivity in kidney (60 min, n = 3): 2.429 ± 0.527 uptake units | radioactivity in large intestinal content (60 min, n = 3): 1.176 ± 1.109 uptake units | radioactivity in large intestine (60 min, n = 3): 7.291 ± 10.308 uptake units | radioactivity in liver (60 min, n = 3): 3.659 ± 0.822 uptake units | radioactivity in lung (60 min, n = 3): 2.387 ± 0.195 uptake units | radioactivity in skeletal muscle (60 min, n = 3): 0.410 ± 0.096 uptake units | radioactivity in skin (60 min, n = 3): 0.435 ± 0.109 uptake units | radioactivity in small intestinal content (60 min, n = 3): 10.518 ± 7.766 uptake units | radioactivity in small intestine (60 min, n = 3): 1.841 ± 0.678 uptake units | radioactivity in spleen (60 min, n = 3): 1.675 ± 0.135 uptake units | radioactivity in stomach (60 min, n = 3): 1.227 ± 0.351 uptake units | radioactivity in testis (60 min, n = 3): 0.605 ± 0.150 uptake units | radioactivity in urine (60 min, n = 3): 23.375 ± 18.208 uptake units | radioactivity in bone (90 min, n = 1): 0.889 uptake units | radioactivity in fat (90 min, n = 1): 0.548 uptake units | radioactivity in heart (ventricle) (90 min, n = 1): 0.464 uptake units | radioactivity in kidney (90 min, n = 1): 2.127 uptake units | radioactivity in large intestinal content (90 min, n = 1): 0.764 uptake units | radioactivity in large intestine (90 min, n = 1): 0.775 uptake units | radioactivity in liver (90 min, n = 1): 2.856 uptake units | radioactivity in lung (90 min, n = 1): 2.150 uptake units | radioactivity in skeletal muscle (90 min, n = 1): 0.357 uptake units | radioactivity in skin (90 min, n = 1): 0.387 uptake units | radioactivity in small intestinal content (90 min, n = 1): 8.700 uptake units | radioactivity in small intestine (90 min, n = 1): 1.942 uptake units | radioactivity in spleen (90 min, n = 1): 1.418 uptake units | radioactivity in stomach (90 min, n = 1): 1.103 uptake units | radioactivity in testis (90 min, n = 1): 0.559 uptake units | radioactivity in urine (90 min, n = 1): 26.947 uptake units | de-fluorination (from bone uptake) (90 minutes): no evidence of de-fluorination | uptake in lung (at 90 minutes): 2 uptake units | initial uptake in bone (initial): 1.4 | initial uptake in lung (initial): ~30 uptake units | initial content in skeletal muscle, skin and testis (low, retained over the course of the experiment): ~0.4 uptake units | uptake in bone after decrease (over the 90 minutes of the experiment): ~0.8
Structure (SMILES): CSc1cccc(N(C)C(=N)Nc2cc(SCC[18F])ccc2Cl)c1 [N-(2-Chloro-5-(2-[^18F]fluoro-ethylthio))-phenyl-N′-(3-methylthio)-phenyl-N′-methylguanidine]
peripheral clearance route: via kidney to urine and via the intestine
